One test concerns BMP4. Description: BMP4 cell assay (BMP reporter). The test is classed as cell-based. The settings on record: Table 2.
For another test, the target named is T1, ALK2/ACVR1 (Homo sapiens, UniProt Q04771).
T1 sequence (Q04771 21-509): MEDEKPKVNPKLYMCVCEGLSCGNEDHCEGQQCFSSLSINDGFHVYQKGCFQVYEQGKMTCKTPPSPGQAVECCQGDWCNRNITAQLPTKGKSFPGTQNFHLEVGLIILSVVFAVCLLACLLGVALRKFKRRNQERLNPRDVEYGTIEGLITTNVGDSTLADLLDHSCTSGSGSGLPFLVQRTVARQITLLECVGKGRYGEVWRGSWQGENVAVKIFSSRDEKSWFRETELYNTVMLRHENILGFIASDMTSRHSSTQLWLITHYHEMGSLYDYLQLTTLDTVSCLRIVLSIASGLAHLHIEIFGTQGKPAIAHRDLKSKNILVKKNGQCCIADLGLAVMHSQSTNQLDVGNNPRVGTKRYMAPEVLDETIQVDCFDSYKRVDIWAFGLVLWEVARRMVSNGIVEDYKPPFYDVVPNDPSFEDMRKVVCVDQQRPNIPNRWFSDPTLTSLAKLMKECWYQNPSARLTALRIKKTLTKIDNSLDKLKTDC
Description: BMP Type 1 receptor assay, ALK2/ACVR1. In kind it is biochemical.

The next test addresses T2, ALK5/TGFBR1 (Homo sapiens, UniProt P36897).
T2 sequence (P36897 34-503): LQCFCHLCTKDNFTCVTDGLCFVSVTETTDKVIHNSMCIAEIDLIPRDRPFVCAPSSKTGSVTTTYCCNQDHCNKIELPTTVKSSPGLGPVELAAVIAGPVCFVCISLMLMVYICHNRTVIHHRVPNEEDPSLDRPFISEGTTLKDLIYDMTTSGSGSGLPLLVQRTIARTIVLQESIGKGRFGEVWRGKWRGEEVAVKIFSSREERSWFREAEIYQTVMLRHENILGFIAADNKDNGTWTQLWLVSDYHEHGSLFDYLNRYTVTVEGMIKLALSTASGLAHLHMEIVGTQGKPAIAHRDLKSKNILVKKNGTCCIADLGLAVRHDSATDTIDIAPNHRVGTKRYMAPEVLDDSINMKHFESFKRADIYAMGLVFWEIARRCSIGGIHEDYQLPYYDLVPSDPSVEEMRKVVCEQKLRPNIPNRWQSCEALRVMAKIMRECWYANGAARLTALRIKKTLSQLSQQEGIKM
Description: BMP Type 1 receptor assay, ALK5/TGFBR1. The test is classed as biochemical.

A further test addresses ALK3/BMPRR1A (Homo sapiens, UniProt P36894). Description: BMP Type 1 receptor assay, ALK3/BMPRR1A. In kind it is biochemical.
The next test concerns the target ALK1/ACVR1 (Homo sapiens, UniProt P37023). Description: BMP Type 1 receptor assay, ALK1/ACVR1. The test is classed as biochemical.
In another test the target is ALK6/BMPR1B (Homo sapiens, UniProt O00238). Description: BMP Type 1 receptor assay, ALK6/BMPR1B. In kind it is biochemical.

Molecules are shown by their SMILES. Bounds are passed on as bounds.

The values below come from patent US20200054643A1, “FUSED HETEROCYCLIC COMPOUNDS AS SELECTIVE BMP INHIBITORS” (Vanderbilt University, priority 2017, published 2020).

ALK6/BMPR1B, sequence (O00238 14-502): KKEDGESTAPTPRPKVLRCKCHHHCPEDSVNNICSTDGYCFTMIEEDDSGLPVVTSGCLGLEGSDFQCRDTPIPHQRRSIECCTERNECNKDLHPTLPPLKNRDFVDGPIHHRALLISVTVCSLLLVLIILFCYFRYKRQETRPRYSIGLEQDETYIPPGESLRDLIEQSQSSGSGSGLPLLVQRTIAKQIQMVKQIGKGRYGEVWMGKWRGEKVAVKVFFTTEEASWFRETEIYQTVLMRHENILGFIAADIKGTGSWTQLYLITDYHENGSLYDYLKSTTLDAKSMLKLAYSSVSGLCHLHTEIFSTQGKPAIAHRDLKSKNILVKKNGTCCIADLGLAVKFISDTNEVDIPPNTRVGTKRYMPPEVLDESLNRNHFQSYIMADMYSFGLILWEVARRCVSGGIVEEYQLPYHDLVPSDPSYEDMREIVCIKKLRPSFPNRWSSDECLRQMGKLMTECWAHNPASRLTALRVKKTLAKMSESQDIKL
ALK3/BMPRR1A, sequence (P36894 24-532): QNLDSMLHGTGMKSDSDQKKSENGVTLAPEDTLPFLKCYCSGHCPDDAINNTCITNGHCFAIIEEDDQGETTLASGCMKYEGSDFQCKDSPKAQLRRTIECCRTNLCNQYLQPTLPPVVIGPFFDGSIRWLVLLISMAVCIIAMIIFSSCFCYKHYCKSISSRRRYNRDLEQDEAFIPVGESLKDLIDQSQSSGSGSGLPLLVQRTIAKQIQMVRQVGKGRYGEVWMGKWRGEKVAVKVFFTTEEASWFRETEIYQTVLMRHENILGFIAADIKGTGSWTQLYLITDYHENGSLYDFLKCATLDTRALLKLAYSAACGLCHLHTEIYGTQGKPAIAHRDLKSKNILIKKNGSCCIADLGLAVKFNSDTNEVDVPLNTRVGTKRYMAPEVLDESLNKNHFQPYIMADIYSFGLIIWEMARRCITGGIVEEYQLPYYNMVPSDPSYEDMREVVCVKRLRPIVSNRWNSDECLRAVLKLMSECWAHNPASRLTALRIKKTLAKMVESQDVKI
ALK1/ACVR1, sequence (P37023 22-503): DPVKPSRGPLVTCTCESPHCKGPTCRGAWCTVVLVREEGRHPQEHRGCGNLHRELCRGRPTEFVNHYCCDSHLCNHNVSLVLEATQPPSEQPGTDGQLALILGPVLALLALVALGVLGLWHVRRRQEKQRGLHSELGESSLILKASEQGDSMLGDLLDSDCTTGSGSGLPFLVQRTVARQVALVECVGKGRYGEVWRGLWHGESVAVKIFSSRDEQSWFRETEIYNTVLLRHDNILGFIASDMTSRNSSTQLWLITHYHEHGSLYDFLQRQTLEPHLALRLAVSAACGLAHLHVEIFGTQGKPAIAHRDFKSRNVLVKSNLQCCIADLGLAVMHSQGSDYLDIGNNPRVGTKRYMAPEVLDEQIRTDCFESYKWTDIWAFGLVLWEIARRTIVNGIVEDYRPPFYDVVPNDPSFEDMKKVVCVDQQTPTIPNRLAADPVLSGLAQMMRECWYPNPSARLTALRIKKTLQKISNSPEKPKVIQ

What is called IC50 is the concentration at which inhibition is half-maximal. The compound `CC(C)Oc1ccc(-c2cc3ncc(-c4ccnc5ccccc45)n3cn2)cc1` displayed an IC50 in the test on BMP4 of 8100 nM.
Regarding `Cc1cc(-c2cnc3cc(-c4ccc(OC(C)C)cc4)ccn23)ccn1` [Entry 45, 7-(4-isopropoxyphenyl)-3-(2-methylpyridin-4-yl)imidazo[1,2-a]pyridine], the IC50 on ALK2/ACVR1 came out at 149 nM; at ALK5/TGFBR1 it was 3490 nM.
Compound `CN1CCN(c2ccc(-c3ccn4c(-c5ccnc6ccsc56)cnc4c3)cc2)CC1` [Entry 62, 7-(7-(4-(4-methylpiperazin-1-yl)phenyl)imidazo[1,2-a]pyridin-3-yl) thieno[3,2-b]pyridine] showed a half-inhibitory concentration (IC50) against ALK3/BMPRR1A of 50.8 nM.
The compound `c1ccc2c(-c3cnc4cc(-c5ccc6c(c5)OCCO6)ccn34)ccnc2c1` [Entry 5, 4-(7-(2,3-dihydrobenzo[b][1,4]dioxin-6-yl)imidazo[1,2-a]pyridin-3-yl)quinoline] registered an IC50 on ALK2/ACVR1 of 270 nM.
Take `CC(C)Oc1ccc(-c2ccn3c(-c4ccnc(Cl)c4)cnc3c2)cc1` [Entry 25, 3-(2-chloropyridin-4-yl)-7-(4-isopropoxyphenyl)imidazo[1,2-a]pyridine]: the IC50 on ALK2/ACVR1 came out at 155 nM; against ALK1/ACVR1, 87 nM; at ALK3/BMPRR1A, 118 nM; against ALK5/TGFBR1, 13600 nM; against ALK6/BMPR1B, 340 nM.
On to `Cc1cc(-c2cnc3cc(-c4ccc(N5CCN(C)CC5)cc4)ccn23)c2ccccc2n1` [Entry 51, 2-methyl-4-(7-(4-(4-methylpiperazin-1-yl)phenyl)imidazo[1,2-a]pyridin-3-yl)quinoline], for which the IC50 at ALK2/ACVR1 came out at 26.5 nM.
Turning to `c1ccc2c(-c3cnc4cc(-c5ccc6c(c5)OCCO6)ccn34)ccnc2c1` [drawing 207], the IC50 in the test with BMP4 was 2890 nM.
In the case of `CC(C)Oc1ccc(-c2ccn3c(-c4cn[nH]c4)cnc3c2)cc1` [Entry 42, 7-(4-isopropoxyphenyl)-3-(1H-pyrazol-4-yl)imidazo[1,2-a]pyridine], the IC50 against ALK2/ACVR1 was 1970 nM; against ALK1/ACVR1 it was 494 nM; against ALK3/BMPRR1A, 92 nM; against ALK5/TGFBR1, > 100000 nM; against ALK6/BMPR1B, 895 nM.
Consider `Cc1cc(-c2cnc3cc(-c4ccc(N5CCN(C)CC5)cc4)ccn23)ccn1` [Entry 67, 7-(4-(4-methylpiperazin-1-yl)phenyl)-3-(2-methylpyridin-4-yl)imidazo[1,2-a]pyridine], for which, on ALK2/ACVR1, the half-maximal inhibitory concentration (IC50) came to 20 nM.
With `c1ccc2c(-c3cnc4cc(-c5ccc(OCCN6CCOCC6)cc5)ccn34)ccnc2c1` [Example 1, 4-(2-(4-(3-(quinolin-4-yl)imidazo[1,2-a]pyridin-7-yl)phenoxy)ethyl)morpholine], in the test on BMP4, it took 62 nM to reach half-maximal inhibition (IC50).
Take `CN1CCN(c2ccc(-c3ccn4c(-c5ccnc6ccccc56)cnc4c3)cc2)CC1` [Entry 21, 4-(7-(4-(4-methylpiperazin-1-yl)phenyl)imidazo[1,2-a]pyridin-3-yl)quinoline]: the IC50 was 7.9 nM against ALK3/BMPRR1A, 3960 nM against ALK5/TGFBR1 and 11 nM on ALK6/BMPR1B.
Consider `c1ccc(-c2cnc3cc(-c4ccc(OCCN5CCOCC5)cc4)ccn23)cc1` [Entry 30, 4-(2-(4-(3-phenylimidazo[1,2-a]pyridin-7-yl)phenoxy)ethyl)morpholine], for which the figures for the concentration for half-maximal inhibition (IC50) at ALK2/ACVR1 and at ALK5/TGFBR1 were 645 nM and > 100000 nM, respectively.
For `CN1CCN(c2ccc(-c3ccn4c(-c5ccncc5)cnc4c3)cc2)CC1` [Entry 66, 7-(4-(4-methylpiperazin-1-yl)phenyl)-3-(pyridin4-yl)imidazo[1,2-a]pyridine], on ALK2/ACVR1, half-maximal inhibition (IC50) required 46 nM.
`CN1CCN(c2ccc(-c3ccn4c(-c5csc6nccnc56)cnc4c3)cc2)CC1` [Entry 60, 7-(7-(4-(4-methylpiperazin-1-yl)phenyl)imidazo[1,2-a]pyridin-3-yl)thieno [2,3-b]pyrazine] returned an IC50 against ALK3/BMPRR1A of 40.1 nM.
Regarding `CC(C)Oc1ccc(-c2ccn3c(-c4ccnc(F)c4)cnc3c2)cc1` [Entry 26, 3-(2-fluoropyridin-4-yl)-7-(4-isopropoxyphenyl)imidazo[1,2-a]pyridine], the IC50 is 265 nM against ALK2/ACVR1 and > 100000 nM against ALK5/TGFBR1.
